± gives the expanded uncertainty stated by the source.
Legend:
[1] = refractive index (Na D-line) (dimensionless); conditions: 101.33 kPa, Liquid, Standard Abbe refractometry
[2] = for viscosity / mass density: 101.33 kPa, Liquid; for viscosity: Cone and plate viscometry; for mass density: Vibrating tube method

NC(=O)Cn1cc[n+](CCCCn2cc[n+](CC(N)=O)c2)c1.O=S(=O)([N-]S(=O)(=O)C(F)(F)F)C(F)(F)F.O=S(=O)([N-]S(=O)(=O)C(F)(F)F)C(F)(F)F
Conditions	mass density, [2] [kg/m3]	refractive index, [1]	viscosity, [2] [mPa·s]
298.15 K	1590.17 ± 14	1.4546 ± 0.0011	8689 ± 1200
303.15 K	1585.41 ± 14	1.4532 ± 0.0011	4730 ± 580
308.15 K	1580.62 ± 14	1.4518 ± 0.0011	3285 ± 370
313.15 K	1575.98 ± 14	1.4504 ± 0.0011	2365 ± 250
318.15 K	1572.04 ± 14	1.4491 ± 0.0011	1824 ± 180
323.15 K	1567.22 ± 13	1.4477 ± 0.0011	1517 ± 140
328.15 K	1562.31 ± 13	1.4464 ± 0.0011	1323 ± 120
333.15 K	1557.66 ± 13	1.4451 ± 0.0011	1221 ± 110
338.15 K	1552.61 ± 13	1.4439 ± 0.0011	1129 ± 96
343.15 K	1548.03 ± 13	1.443 ± 0.0011	1098 ± 93

Conditions	Glass transition temperature [°C]
[2], Glass, DTA	-40 ± 6

Reference: the NIST ThermoML archive (doi:10.1021/je3000876)
